Test results published in patent US5968514A (priority 1994, dated 1999).
Values joined by “and” are separate entries in the source; they are usually repeats but may differ in a detail not shown here. Equal values may be shown once. “Also recorded” adds a separate entry of the source. Read-outs that look alike come from different tables or passages of the source. Ends that are not written are not given here.

Tests used:
[1] = system: class II MHC molecules on Raji cells; format: binding, human
[2] = system: class II MHC molecules on Raji cells; format: binding, human; remark: listed apart in the source
[3] = system: human peripheral mononuclear cells; format: cell-based
[4] = system: class II-negative L cells; format: binding
[5] = biological target: I-Aβ^b (60-90) peptide of class II MHC β-chain (Mus musculus, UniProt P14483); format: binding, murine
[6] = system: class II MHC molecules on A20 cells; format: binding, mouse; conditions: for IC50: read-out: concentration reducing 125I-MMTV ORF(76-119) binding to A20 cells by 50%
[7] = system: class II MHC molecules (I-A^d and I-E^d) on A20 cells; format: binding, mouse
[8] = system: Whole PMNC; format: cell-based, human
[9] = system: human PMNC, APC and T cell fractions; format: cell-based

I-Aβ^b (60-90) peptide of class II MHC β-chain, sequence (P14483 87-117): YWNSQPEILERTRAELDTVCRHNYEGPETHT

With “HIV-1 Nef(1-38): SEQ ID NO. 14 MGGKWSKSSVVGWPTVRERMRRAEPAADGVGAASRDLE” the “reduction of 125I-SEA binding to Raji cells” value [1] was “slight inhibitory effects; also recorded: slightly reduced”.
With “HIV-1 Nef(31-65): SEQ ID NO. 15 GAASRDLEKHGAITSSNTAATNAACAWLEAQEEEE” the “reduction of 125I-SEA binding to Raji cells” value [1] was “slight inhibitory effects; also recorded: slightly reduced”.
For “HIV-1 Nef(123-160): SEQ ID NO. 18 DWQNYTPGPGVRYPLTFGWCYKLVPVEPDKVEEANKGE”, the IC50 ([2]; read-out: concentration reducing 125I-HIV-1 Nef(123-160) binding to Raji cells by 50%) was 30 µM, the “SI ± sd, cells cultured with Anti-IgM + peptide” value ([3]; 96 h) was 14.1 ± 0.5 and the “SI ± sd, cells cultured with ConA + peptide” value ([3]; 96 h) was 4.5 ± 0.4.
With “MMTV ORF(76-119): SEQ ID NO. 1 DSFNNSSVQDYNLNDSENSTFLLGQGPQPTSSYKPHRLCPSEIE” the “binding of MMTV ORF(76-119) to class II-negative L cell line in comparison to A20 cells” value [4] was “insignificant”, the “competition with 125I-SEA and 125I-MMTV ORF(76-119) for binding to I-Aβ^b (60-90) peptide” value [5] was “competed” and the “direct binding of 125I-labelled peptide to A20 cells” value [6] was “did bind”. For the same substance, the IC50 [6] was 25 µM, the “reduction of 125I-SEA binding to A20 cells” value [7] was “approximately 63%” and the IC50 ([7]; read-out: concentration reducing 125I-SEA binding to A20 cells by 50%) was 20 µM and ~20 µM.
“NKGENTSLLHPVSLHGMDDPEREVLEWRFD [HIV-1 Nef(156-186)]” was tested, and the “SI ± sd, cells cultured with ConA + peptide” value [3] was 5.2 ± 1.6.
Toxic shock syndrome toxin-1 [TSST-1] was tested, and the “competition with 125I-MMTV ORF(76-119) for binding to A20 cells (in words)” value (“competition … (in words)” below) [6] was “did not compete”.
With concanavalin A [ConA] the “IFNγ at 24 H” value [8] was 10, the “IFNγ at 48 h” value [8] was 350 ± 71 and the “IFNγ at 72 h” value [8] was 400 ± 141. For the same substance, the “IFNγ at 96 h” value [8] was 150 ± 71, the “level of IFNγ production (comparison in words)” value [8] was “levels much lower than that of Nef or SEA” and the “SI ± sd, APC” value [9] was 0.9 ± 0.1. For the same substance, the “SI ± sd, APC + T cells” value [9] was 40.7 ± 4.3 and the “SI ± sd, stimulus alone” value [3] was 6.0 ± 0.4.
For staphylococcal enterotoxin A [SEA], the IC50 ([1]; read-out: concentration reducing 125I-SEA binding to Raji cells by 50%) was 0.2 µM, the “competition with 125I-SEA and 125I-MMTV ORF(76-119) for binding to I-Aβ^b (60-90) peptide” value [5] was “competed” and the “IFNγ at 24 H” value [8] was 55 ± 7. For the same substance, the “IFNγ at 48 h” value [8] was 550 ± 141, the “IFNγ at 72 h” value [8] was 3000 and the “IFNγ at 96 h” value [8] was 2000. The “inhibition of 125I-HIV-1 Nef(123-160) binding to Raji cells (in words)” value [2] was “binding as well as SEE, but it was more effective than SEC1 or SEB”, the “SI ± sd, APC” value [9] was 1.6 ± 0.2 and the “ratio of the stimulation index for whole PMNC versus reconstituted APC/T cells” value [9] was about 6.78. For the same substance, the “competition … (in words)” value [6] was “a more potent competitor”, the IC50 [6] was 1.8 µM and the “SI ± sd, stimulus alone” value [3] was 17.6 ± 3.3. For the same substance, the “effectiveness as competitor of 125I-SEA binding relative to MMTV ORF(76-119)” value [7] was 20 times.
For staphylococcal enterotoxin B [SEB], the “inhibition of 125I-HIV-1 Nef(123-160) binding to Raji cells (in words)” value [2] was “it was more effective than SEC1 or SEB” and the “competition … (in words)” value [6] was “competed less effectively than SEA”.
